Measurements as given in US8795611B2 (priority 2009, dated 2014).
≈ marks a conversion by molar mass, not a printed value.

Experiments:
[1] = Solubility of DEHiBA in an aqueous phase by total organic carbon (TOC) measurement, test in mixers-decanters; type: physicochemical; details: for DEHiBA equivalent: assumes all organic carbon stems from the extractant
Description: The solubility of DEHiBA in an aqueous phase was appreciated by conducting a test in mixers-decanters similar to the one described in Example 1 hereinbefore and by measuring the total organic carbon (or TOC) present in the aqueous phase exiting the battery 11 (called <<extraction raffinate>> hereafter) on the one hand and, in the aqueous phase exiting the battery 13 and containing the purified uranyl nitrate (called <<U production>> hereafter) on the other hand.
The total organic carbon was measured by means of a thermal TOC-meter in the aqueous phases as obtained after decantation, i.e. without submitting these phases to any centrifugation.

[2] = Distribution coefficient, single contact in tubes, 1.5 mol/L DEHiBA in Isane IP 185 vs nitric acid solutions (ICP-AES); type: physicochemical; details: HNO3 0.5 to 4 M, 25° C.
[3] = as above; type: physicochemical; details: HNO3 0.5 to 4 M, 25° C.; remark: listed apart in the source
[4] = type: physicochemical; details: 1.5 mol/L DEHiBA in Isane IP 185, HNO3 0.5 to 4 M, 25° C.
[5] = Distribution coefficient, single contact in tubes, 1.5 mol/L DEHiBA in Isane IP 185 vs nitric acid solutions (ICP-AES); type: physicochemical; details: HNO3 0.5 to 4 M, 25° C.; remark: listed apart in the source
[6] = as above; type: physicochemical; details: HNO3 0.5 to 4 M, 25° C.; remark: listed apart in the source
[7] = as above; type: physicochemical; details: nitric acid 4 mol/L, regardless of the uranium concentration, 25° C.
[8] = type: physicochemical; details: 1.5 mol/L DEHiBA in Isane IP 185; aqueous 360 g/L uranium, 2 mol/L nitric acid; even after uranium depletion; 25° C.
[9] = with or without 30 g/L uranium, 1 hour

CCCCC(CC)CN(CC(CC)CCCC)C(=O)C(C)C (stereo not drawn) [DEHiBA, N,N-di-(2-ethylhexyl)isobutyramide]
DEHiBA equivalent ([1]; U production, HNO3 0.34 mol/L): 0.00019 mol/L
solubility ([1]; aqueous phase after decantation, under the conditions of the test, includes diluent (TPH) and carried-away organic phase, read-out: DEHiBA soluble in an aqueous phase): 40 to 60 µg/mL (≈ 128 to 193 µM)
DEHiBA equivalent ([1]; extraction raffinate, HNO3 3.1 mol/L): 0.00013 mol/L
U/impurities separation factor (molybdenum) [2]: greater than 10,000
distribution coefficient of molybdenum [2, 9]: less than 10^−3
U/impurities separation factor (zirconium) [3]: greater than 10,000
distribution coefficient of zirconium [3, 9]: less than 10^−3
U/impurities separation factor (iron) [4]: greater than 10,000
distribution coefficient of iron [4, 9]: less than 10^−3
U/impurities separation factor (calcium) [5]: greater than 10,000
distribution coefficient of calcium [5, 9]: less than 10^−3
U/impurities separation factor (vanadium) [6]: greater than 10,000
distribution coefficient of vanadium [6, 9]: less than 10^−3
distribution coefficient of thorium(IV) [7]: less than 5.10^−3
distribution coefficient of thorium 234, DTh [8]: less than 10^−2
